From PubChem BioAssay (NCI)
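Grown in 96-well plates, cells were treated for 48 hours with each compound at five concentrations. Insufficient inhibition: endpoint recorded as highest concentration tested. Here, GI50 denotes the concentration required for 50% inhibition of growth. TGI denotes the concentration required for complete inhibition of growth.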

Key:
Assay in all cases: DTP human tumour cell line panel, 48 h
[1] = test system: SF-539 CNS
[2] = test system: CCRF-CEM leukemia
[3] = test system: MDA-MB-468 breast
[4] = test system: SK-MEL-28 melanoma
[5] = test system: OVCAR-4 ovarian
[6] = test system: NCI-H522 lung
[7] = test system: UO-31 renal
[8] = test system: SNB-75 CNS
[9] = test system: DU-145 prostate
[10] = test system: 786-0 renal
[11] = test system: SW-620 colon
[12] = test system: NCI/ADR-RES ovarian
[13] = test system: EKVX NSCLC
[14] = test system: KM12 colon
[15] = test system: OVCAR-5 ovarian
[16] = test system: NCI-H23 lung
[17] = test system: SNB-19 CNS
[18] = test system: HCT-15 colon
[19] = test system: U251 CNS
[20] = test system: OVCAR-8 ovarian
[21] = test system: TK-10 renal
[22] = test system: SN12C renal
[23] = test system: SK-MEL-2 melanoma
[24] = test system: HCT-116 colon
[25] = test system: HL-60(TB) leukemia
[26] = test system: UACC-62 melanoma
[27] = test system: COLO 205 colon
[28] = test system: SR leukemia
[29] = test system: HS 578T breast
[30] = test system: HOP-62 NSCLC

Compound: CCN1C(=O)N(CC)C2NNC(Sc3c(C(=O)O)c4ccccc4n(C4CCCC4)c3=O)=NC21 (centres undefined)
- GI50 [1]: 2.14 µM
- TGI [1]: 5.51 µM
- GI50 [2]: 3.45 µM
- TGI [2]: 38.3 µM
- GI50 [3]: 2.02 µM
- TGI [3]: 6.05 µM
- GI50 [4]: 6.95 µM
- TGI [4]: 25.7 µM
- GI50 [5]: 6.15 µM
- TGI [5]: 45 µM
- GI50 [6]: 1.54 µM
- TGI [6]: 3.74 µM
- GI50 [7]: 4.38 µM
- TGI [7]: 22.9 µM
- GI50 [8]: 1.51 µM
- TGI [8]: 11.8 µM
- GI50 [9]: 3.91 µM
- TGI [9]: 18.3 µM
- GI50 [10]: 4.36 µM
- TGI [10]: 19.4 µM
- GI50 [11]: 3.3 µM
- TGI [11]: 17.1 µM
- GI50 [12]: 1.92 µM
- TGI [12]: 4.42 µM
- GI50 [13]: 4.69 µM
- TGI [13]: 27.4 µM
- GI50 [14]: 3.3 µM
- TGI [14]: 16.9 µM
- GI50 [15]: 4.09 µM
- TGI [15]: 22.1 µM
- GI50 [16]: 3.44 µM
- TGI [16]: 15.4 µM
- GI50 [17]: 4.59 µM
- TGI [17]: 57.3 µM
- GI50 [18]: 2.85 µM
- TGI [18]: 11.2 µM
- GI50 [19]: 3.66 µM
- TGI [19]: 15.3 µM
- GI50 [20]: 3.28 µM
- TGI [20]: 12.7 µM
- GI50 [21]: 10.3 µM
- TGI [21]: 31.3 µM
- GI50 [22]: 3.41 µM
- TGI [22]: 16.1 µM
- GI50 [23]: 4.15 µM
- TGI [23]: 19.4 µM
- GI50 [24]: 3.09 µM
- TGI [24]: 11.2 µM
- GI50 [25]: 2.35 µM
- TGI [25]: 6.86 µM
- GI50 [26]: 3.05 µM
- TGI [26]: 16.3 µM
- GI50 [27]: 2.04 µM
- TGI [27]: 4.16 µM
- GI50 [28]: 3.4 µM
- TGI [28]: 35.7 µM
- GI50 [29]: 2.21 µM
- TGI [29]: 8.88 µM
- GI50 [30]: 5.75 µM
